Measured values from the NIST ThermoML archive (doi:10.1021/acs.jced.7b01053).

Test: mn = molality of the nth substance listed, in mol/kg
Details: 293 K, 100 kPa, Liquid, Alternating current cell with electrodes

CCCC(=O)[O-].C[NH2+]CCO [N-methyl-2-hydroxyethylammonium butanoate] + O
Details	electrical conductivity [S/m]
m1 = 0.01443	0.041
m1 = 0.01609	0.047
m1 = 0.03059	0.077
m1 = 0.03161	0.084
m1 = 0.04718	0.115
m1 = 0.04851	0.122
m1 = 0.06311	0.149
m1 = 0.06401	0.155
m1 = 0.08077	0.185
m1 = 0.08176	0.189
m1 = 0.09698	0.232
m1 = 0.09705	0.235
m1 = 0.1139	0.268
m1 = 0.1146	0.267
m1 = 0.1298	0.298
m1 = 0.1307	0.297
m1 = 0.1464	0.324
m1 = 0.1479	0.328
m1 = 0.1614	0.35
m1 = 0.1638	0.355
m1 = 0.1771	0.372
m1 = 0.1802	0.383
m1 = 0.1918	0.395
m1 = 0.1952	0.408
m1 = 0.2064	0.42
m1 = 0.2106	0.434
m1 = 0.2201	0.44
m1 = 0.2246	0.456
m1 = 0.2336	0.46
m1 = 0.2384	0.478
m1 = 0.2466	0.48
m1 = 0.2514	0.496
m1 = 0.2596	0.498
m1 = 0.2644	0.516
m1 = 0.2712	0.513
m1 = 0.2766	0.528
m1 = 0.283	0.525
m1 = 0.2887	0.542
m1 = 0.294	0.54
m1 = 0.2998	0.558
m1 = 0.3048	0.556
m1 = 0.311	0.572
m1 = 0.3148	0.571
m1 = 0.3214	0.586
m1 = 0.3247	0.583
m1 = 0.3317	0.6
m1 = 0.334	0.596
m1 = 0.3412	0.611
m1 = 0.343	0.607
m1 = 0.3505	0.624
m1 = 0.3515	0.619
m1 = 0.3593	0.634
m1 = 0.3599	0.629
m1 = 0.3677	0.639
m1 = 0.3679	0.646
m1 = 0.3758	0.656

CCC(=O)[O-].OCC[NH2+]CCO [bis(2-hydroxyethyl)ammonium propanoate] + O
Details	electrical conductivity [S/m]
m1 = 0.01926	0.109
m1 = 0.01974	0.104
m1 = 0.03749	0.196
m1 = 0.0377	0.192
m1 = 0.05722	0.296
m1 = 0.05727	0.296
m1 = 0.07596	0.375
m1 = 0.0761	0.365
m1 = 0.0957	0.456
m1 = 0.09617	0.447
m1 = 0.1142	0.528
m1 = 0.1152	0.519
m1 = 0.1335	0.601
m1 = 0.135	0.596
m1 = 0.1519	0.67
m1 = 0.1542	0.668
m1 = 0.1707	0.737
m1 = 0.1718	0.725
m1 = 0.1845	0.785
m1 = 0.1898	0.798
m1 = 0.2029	0.849
m1 = 0.2071	0.875
m1 = 0.22	0.901
m1 = 0.2243	0.942
m1 = 0.2375	0.955
m1 = 0.2406	0.997
m1 = 0.2535	1
m1 = 0.2571	1.03
m1 = 0.2696	1.05
m1 = 0.2722	1.08
m1 = 0.285	1.09
m1 = 0.2875	1.12
m1 = 0.3002	1.13
m1 = 0.3019	1.17
m1 = 0.3142	1.17
m1 = 0.3162	1.16
m1 = 0.3282	1.21
m1 = 0.3293	1.23
m1 = 0.3413	1.24
m1 = 0.3424	1.27
m1 = 0.3538	1.27
m1 = 0.3545	1.31
m1 = 0.3658	1.3
m1 = 0.366	1.35
m1 = 0.3774	1.39
m1 = 0.3775	1.32
m1 = 0.3881	1.41
m1 = 0.3884	1.36
m1 = 0.3986	1.44
m1 = 0.3992	1.39
m1 = 0.4083	1.47
m1 = 0.4092	1.41
m1 = 0.418	1.5
m1 = 0.419	1.44
m1 = 0.4271	1.53
m1 = 0.4283	1.46
m1 = 0.4361	1.55
m1 = 0.4372	1.49
m1 = 0.4445	1.57
m1 = 0.4457	1.51
m1 = 0.4527	1.6
m1 = 0.4539	1.53
m1 = 0.4617	1.56
m1 = 0.4692	1.58
m1 = 0.4759	1.59
